Data from patent US12043602B2, “Fendiline derivatives” (The Board of Regents of the University of Texas System, priority 2019, dated 2024).
Where “and” joins values, the source holds several entries; their conditions need not be identical. Equal values may be shown once. Read-outs that look alike come from different tables or passages of the source.

Key:
[1] = test system: NCI-H23 (Mut) lung tumor cells; assay: CyQUANT proliferation assay; format: cell-based; conditions: Homo sapiens
Protocol: Madine Darby Canine Kidney epithelial cells (MDCK) stably co-expressing mGFP-tagged full length oncogenic mutant K-Ras (GFP—K-RASG12V) or mGFP-LactC2 (peptide probe for phosphatidylserine) and mCherry-tagged to the amino acids 179-189 of H-RasC181S, C184S (mCherry-CAAX, localizes primarily to endomembranes) were grown in DMEM-high glucose/sodium pyruvate/10% FBS. The medium was supplemented with 1× Penicillin/Streptomycin for fluorescence microscopy assays, to avoid any microbial contamination from the test compounds added. KLE and Hec50 cells were maintained in DMEM-F-12 medium supplemented with 10% FBS. Hec-1A and Hec-1B cells were grown in McCoy's 5a medium supplemented with 10% FBS. ESS-1 cells were grown in RPMI 1640 medium supplemented with 20% FBS. MPanc96 cells were grown in DMEM supplemented with 10% FBS, MiaPaCa-2 cells in DMEM supplemented with 10% FBS and 2.5% horse serum and all other cell lines were grown in RPMI 1640 supplemented with 10% FBS. All cancer cell media were supplemented with ×Penicillin/Streptomycin. All cell lines were grown at 37° C. with 5% CO2.
Cells were seeded in 96-well plates. After 24 h, fresh growth medium supplemented with 0.1% vehicle (DMSO), or various concentrations of drugs was added and cells were grown for 72 h. Cell numbers were quantified using the CyQUANT® Cell Proliferation Assay Kit (Molecular Probes, Life Technologies), according to the manufacturer's protocol. Fluorescence measurement was used as a measure of live cell number.

[2] = test system: MAPK pathway inhibitors such as trametinib; assay: Combination with MAPK pathway inhibitors; conditions: preliminary findings
cleaved caspase 3 (CC3) = assay: Immunohistochemistry of tumor sections, cleaved caspase 3; set-up: species or system nu/nu mice; conditions: mouse, in vivo
Protocol: Immunohistochemistry. 4-5 μm sections were deparaffinized, rehydrated, and treated with 10 mM sodium citrate for heat induced antigen retrieval. After quenching endogenous peroxidase, and blocking with 2.5% normal goat serum (Vector Laboratories S-1012), sections were incubated overnight at 4° C. with primary antibody diluted in blocking solution as recommended by manufacturer (Cell Signaling). Controls were incubated with diluted normal rabbit IgG. After incubation with biotinylated secondary antibody diluted 1:250 in blocking serum for 45 min at rt, sections were incubated with VECTASTAIN ABC reagent for 30 min, and for development of the DAB chromogen the Quanto substrate was used. Slides were counter stained with Hematoxylin. Five fields per stained section per xenograft were photographed at 10X. CC3+ and pERK+ area and number of events per field were quantitated via automated image analysis (NIS Elements BR analysis ver. 4.13.04). Vessel number and lumen area per field used the same software with manual settings to trace vessel wall contours. Antibodies used are as follows: CC3: Cell Signaling #9661, use at 1:300. […]

mGFP-K-RASG12V = mGFP-K-RASG12V (Homo sapiens (Human), UniProt P01116, G12V); assay: K-Ras mislocalization assay (confocal microscopy, Manders coefficient); format: cell-based; set-up: key to Emax: Manders coefficient: fraction of mCherry-CAAX co-localizing with GFP-K-Ras; conditions: for IC50 / Emax: MDCK cells; for Emax: maximal effect, Manders coefficient
Outline: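 Readout is the Manders coefficient: share of mCherry-CAAX overlapping mGFP-K-RASG12V in confocal images, proportional to K-Ras mislocalization. Stable MDCK co-expressing lines were exposed 48 h to various drug concentrations or 0.1% DMSO vehicle, then paraformaldehyde-fixed.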

SMPD1-GFP (ASM) = SMPD1-GFP (ASM) (Homo sapiens (Human), UniProt P17405); assay: Western blot of SMPD1-GFP levels; format: cell-based; conditions: 5 μM compounds for 48 h
Protocol: FIG. 6A-C. (A) Dose response curves quantifying the extent of KRASG12V and LactC2 mislocalization after 48 h treatment with compounds. Mislocalization was quantified using Manders coefficients as the fraction of mCherry-CAAX co-localizing with mGFP-KRASG12V or GFP-LactC2. (B) ASM activity in cell stably expressing GFP-tagged SMPD1 treated with DMSO or 5 μM compound for 48 h. (C) Representative western blots and quantitation of SMPD1-GFP levels in cells treated with 5 μM compounds for 48 h. (D) Representative confocal images of MDCK cells stably co-expressing mGFP-KRASG12V and mCherry-CAAX treated with 10 μM compound 6 or 1 μM of compounds 12f (NY0244), 12h (NY0331) or 22 (NY0335) for 48 h (-ASM), then incubated with recombinant ASM in the continued presence of drugs for a further 60 min (+ASM). Mislocalization was quantified using Manders coefficients as the fraction of mCherry-CAAX co-localizing with mGFP-KRASG12V.
Western Blotting. […] Signals were detected by enhanced chemiluminescence (Thermo Fisher Scientific) and imaged using a FluorChemQ imager (Alpha Inotech). Quantification of intensities was performed using FluorChemQ software.

[3] = NCI-H23, 72 h, read-out: IC50 proliferation NCI-H23 (Mut)
[4] = NCI-H23, Table 11, lung, read-out: IC50 (μM) NCI H23 (Mut)
[5] = 48 h treatment, read-out: IC50 (μM), KRASG12V mislocalization

Structure (SMILES)	IC50 [1, 3]	IC50 [1, 4]	synergy with MAPK pathway inhibitors [2]	cleaved caspase 3 (CC3) in tumors (cleaved caspase 3 (CC3))	IC50 (mGFP-K-RASG12V; [5])	Emax (mGFP-K-RASG12V; 48 h)	fold potency loss / decreased potency (mGFP-K-RASG12V; versus 12f (NY0244))	cellular levels of ASM (SMPD1-GFP) (SMPD1-GFP (ASM))	IC50 (mGFP-K-RASG12V; 48 h, read-out: KRAS mislocalization potency)	Emax (mGFP-K-RASG12V; 48 h, listed as 22)	Emax (mGFP-K-RASG12V; 48 h, listed as NY335)	Emax (mGFP-K-RASG12V; 48 h, listed as 12f)	fold increase in KRAS mislocalization potency (mGFP-K-RASG12V; versus hit 7)
CC(NCCC(c1ccccc1)c1ccccc1)c1ccccc1 (stereo not shown) [Fendiline]	11.4 µM	11.4 ± 1 µM											
COc1ccc([C@@H](C)N(CC=C(c2ccccc2)c2ccccc2)CCN2CCCC2)cc1 [NY0331, (R)-N-(1-(4-methoxyphenyl)ethyl)-3,3-diphenyl-N-(2-(pyrrolidin-1-yl)ethyl)prop-2-en-1-amine]			synergizes	increased	0.3 µM	0.85 ± 0.04	3 fold	reduced the levels of ASM					
COc1ccc([C@@H](C)N(CC=C(c2ccccc2)c2ccccc2)CCCN2CCN(C)CC2)cc1 [NY0335, (R)-N-(1-(4-methoxyphenyl)ethyl)-N-(3-(4-methylpiperazin-1-yl)propyl)-3,3-diphenylprop-2-en-1-amine]	4.14 µM	4.1 µM		increased	0.02 µM				0.02 µM	0.81	0.81 ± 0.01		
COc1ccc([C@@H](C)N(CC=C(c2ccccc2)c2ccccc2)CCN2CCN(C)CC2)cc1 [NY0244, (R)-N-(1-(4-methoxyphenyl)ethyl)-N-(2-(4-methylpiperazin-1-yl)ethyl)-3,3-diphenylprop-2-en-1-amine]	3.81 µM	3.8 µM			0.1 µM	0.75 ± 0.01		reduced the levels of ASM				0.75 and 0.75 ± 0.01	5 fold
